# Measurements as given in patent US20110311601A1, “ANTIMICROBIAL MEDICAL DEVICES” (priority 2010, published 2011).
# Where no end group is shown, it is not given here.
# Legend:
# Experiment in all cases: micro-dilution assay (MBC, LD90)
# Assay type in all cases: cell-based
# [1] = test system: Acinetobacter haemolyticus ATCC 17906
# In short: (§1)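 MBC (99.9% killing) and LD90 (90% killing) come from CFU counts normalised to an untreated growth control. Organisms grown in BHI, washed into 10 mM sodium phosphate buffer pH 7.2 at 10^4 cells/ml, then incubated 2 h with hβD2 (final 0.0125–100 mg/l) before plating.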
# [2] = test system: Citrobacter freundii UR 1776/03 (wild-type)
# In short: as §1
# [3] = test system: Salmonella typhimurium ATCC 13311
# In short: as §1
# [4] = test system: Proteus vulgaris ATCC 13315
# In short: as §1
# [5] = test system: Candida glabrata ATCC 90030
# In short: as §1
# [6] = test system: Pseudomonas fluorescens NCTC 10038
# In short: as §1
# [7] = test system: Streptococcus pneumoniae ATCC 33400
# In short: as §1
# [8] = test system: Staphylococcus aureus ATCC 33593 (MRSA)
# In short: as §1
# [9] = test system: Prevotella intermedia ATCC 25611
# In short: as §1
# [10] = test system: Staphylococcus aureus (MRSA 344) (wild-type)
# In short: as §1
# [11] = test system: Candida albicans C.a 46 (wild-type)
# In short: as §1
# [12] = test system: Acinetobacter baumannii ATCC 19606
# In short: as §1
# [13] = test system: Eikenella corrodens (wild-type)
# In short: as §1
# [14] = test system: Klebsiella pneumoniae (ESBL) CF 7 (wild-type)
# In short: as §1
# [15] = test system: Acinetobacter calcoaceticus ATCC 23055
# In short: as §1
# [16] = test system: Candida parapsilosis ATCC 90018
# In short: as §1
# [17] = test system: Acinetobacter junii ATCC 17908
# In short: as §1
# [18] = test system: Streptococcus mutans ATCC 35668
# In short: as §1
# [19] = test system: Fusobacterium nucleatum ATCC 10953
# In short: as §1
# [20] = test system: Serratia marcescens Mero 060/148 (wild-type)
# In short: as §1
# [21] = test system: Acinetobacter Genosp. 11 ATCC 11171
# In short: as §1
substance,measurement,setting,value
"human β-defensin-2 (GIGDPVTCLKSGAICHPVFCPRRYKQIGTCGLPGTKCCKKP; ends and bridges not checked; cysteine pairing not given here) [hβD2, recombinant hβD2]",LD 90 = μg/ml 90% killing,[1],0.39 µg/mL
same,MBC = μg/ml 99.9% killing,[1],1.56 µg/mL
same,LD 90 = μg/ml 90% killing,[2],1.56 µg/mL
same,MBC = μg/ml 99.9% killing,[2],6.25 µg/mL
same,LD 90 = μg/ml 90% killing,[3],1.56 µg/mL
same,MBC = μg/ml 99.9% killing,[3],6.25 µg/mL
same,LD 90 = μg/ml 90% killing,[4],3.125 µg/mL
same,MBC = μg/ml 99.9% killing,[4],12.5 µg/mL
same,LD 90 = μg/ml 90% killing,[5],50 µg/mL
same,MBC = μg/ml 99.9% killing,[5],>100 µg/mL
same,LD 90 = μg/ml 90% killing,[6],6.25 µg/mL
same,MBC = μg/ml 99.9% killing,[6],25 µg/mL
same,LD 90 = μg/ml 90% killing,[7],25 µg/mL
same,MBC = μg/ml 99.9% killing,[7],50 µg/mL
same,LD 90 = μg/ml 90% killing,[8],100 µg/mL
same,MBC = μg/ml 99.9% killing,[8],>100 µg/mL
same,LD 90 = μg/ml 90% killing,[9],3.125 µg/mL
same,MBC = μg/ml 99.9% killing,[9],3.125 µg/mL
same,LD 90 = μg/ml 90% killing,[10],100 µg/mL
same,MBC = μg/ml 99.9% killing,[10],100 µg/mL
same,LD 90 = μg/ml 90% killing,[11],6.25 µg/mL
same,MBC = μg/ml 99.9% killing,[11],25 µg/mL
same,LD 90 = μg/ml 90% killing,[12],12.5 µg/mL
same,MBC = μg/ml 99.9% killing,[12],25 µg/mL
same,LD 90 = μg/ml 90% killing,[13],50 µg/mL
same,MBC = μg/ml 99.9% killing,[13],50 µg/mL
same,LD 90 = μg/ml 90% killing,[14],25 µg/mL
same,MBC = μg/ml 99.9% killing,[14],50 µg/mL
same,LD 90 = μg/ml 90% killing,[15],0.39 µg/mL
same,MBC = μg/ml 99.9% killing,[15],0.78 µg/mL
same,LD 90 = μg/ml 90% killing,[16],12.5 µg/mL
same,MBC = μg/ml 99.9% killing,[16],25 µg/mL
same,LD 90 = μg/ml 90% killing,[17],3.125 µg/mL
same,MBC = μg/ml 99.9% killing,[17],12.5 µg/mL
same,LD 90 = μg/ml 90% killing,[18],100 µg/mL
same,MBC = μg/ml 99.9% killing,[18],>100 µg/mL
same,LD 90 = μg/ml 90% killing,[19],3.125 µg/mL
same,MBC = μg/ml 99.9% killing,[19],3.125 µg/mL
same,LD 90 = μg/ml 90% killing,[20],50 µg/mL
same,MBC = μg/ml 99.9% killing,[20],100 µg/mL
same,LD 90 = μg/ml 90% killing,[21],0.39 µg/mL
same,MBC = μg/ml 99.9% killing,[21],3.125 µg/mL
